Values joined by “and” are separate entries in the source; they are usually repeats but may differ in a detail not shown here. Identical values can stand only once.
Columns and labels:
class 1 HDACs 1 and 2 = conditions: data from Bradner et al., FIG. 6; cited from earlier work
SKOV3 TSPYL5 KD cells = assay: Cell growth assay (Cell Titer-Glo) in SKOV3 cells expressing TSPYL5 shRNA; type: cell-based
Procedure: (§1) Sensitivity of cells to HDAC inhibitor treatment is expressed as their S-value (S), which is a dimensionless compound value generated by adding the values of IC50 and the growth rate (GR) at the maximum drug concentration used to determine the IC50. The term (maximum drug concentration/200) is added in the equation below to achieve equal weighting of the S-value for IC50 and GR. S=IC50+(GR+100)×(maximum drug concentration/200) See FIG. 1 for an example of an S value calculation and explanation of GR.
(§2) To determine cell growth IC50 and GR at a given drug concentration, growth was plotted against drug concentration as a percentage of the number of cells present at the beginning of the experiment. Cells were plated in 96-well plates and allowed to attach and grow overnight. The following day, the cells were treated with serial dilutions of test compound. The viable cells were measured at day 0 (24 hours after plating) and day 3 (72 hours after adding the tested compound) using Cell Titer-Glo. Growth was calculated compared to day 0.
The plot generated two key data, the IC50 value and the % growth at the highest tested compound concentration (GR). […]
Effect of knocking down TSPYL5 expression using shRNA on IC50, GR and S values of romidepsin treatment. […] Knockdown of TSPYL5 in SKOV3 TSPYL5 KD cells was verified using western blot and quantitative PCR. […]

SKOV3 NS cells = assay: Cell growth assay (Cell Titer-Glo) in SKOV3 cells expressing non-silencing control shRNA; type: cell-based; conditions: for IC50: romidepsin, 5 independent experiments
Procedure: as §1, §2
(§3) The plot generated two key data, the IC50 value and the % growth at the highest tested compound concentration (GR). The highest concentration tested for romidepsin was 1000 nM.
Effect of knocking down TSPYL5 expression using shRNA on IC50, GR and S values of romidepsin treatment. SKOV3 cells expressing either TSPYL5 shRNA (SKOV3 TSPYL5 KD) or non-silencing control shRNA (SKOV3 NS) were created using lentiviral infection. Knockdown of TSPYL5 in SKOV3 TSPYL5 KD cells was verified using western blot and quantitative PCR. Expression of TSPYL5 in these cells was reduced by 70%. After selection of stable pools with puromycin, cells were treated with varying concentrations of romidepsin for determination of IC50, GR and S value. Data from 5 independent experiments are shown. SKOV3 TSPYL5 KD cells have lower IC50s, show […] growth rate (GR) and have thus smaller S values than SKOV3 NS cells, meaning these cells are more sensitive to treatment with romidepsin. The data are plotted in FIG. 5. Differences between the 2 lines are significant (paired t test).

cell line panel = assay: Cell line panel viability screen (Cell Titer-Glo), S-value; type: cell-based
Procedure: as §1, §2, §3
The IC50s in these experiments could range from 0-1000 nM. […] Growth at the highest drug concentration tested ranged from −100 to +100. For the calculation of the S-Value, 100 was added to the numerical value of the observed growth, so that only positive numbers were generated (after adding 100, the range was from 0-200). Since IC50s and growth at the maximum drug concentration tested have different numerical ranges (0-1000 as compared to 0-200), the value for growth inhibition was multiplied by the maximum drug concentration used/200. This means that in the example given, both IC50 and GR could contribute values of 0-1000 to the S-value.
A cell line panel viability screen was used to compare the effects of a 6 hour and 72 hour treatment with romidepsin across a wide variety of cell lines. […] The S-Value was computed for the 6 h treatment and ranged from 5 for the most sensitive cell lines to 2000 for the most resistant cell lines. To identify genes whose expression correlated with sensitivity to HDAC inhibitor treatment, we applied two way ANOVA to select genes that were correlated with sensitivity. […] The most overexpressed gene in the resistant subgroup, ABCB1 (Res/Sen=29.6) is known to cause resistance to romidepsin treatment. This approach identified novel genes that correlated with resistance and/or sensitivity to the HDAC inhibitors but not tissue origin.
A cell line panel viability screen was used to compare the effects of romidepsin across a wide variety of cell lines and is shown in FIG. 3.

[1] = system: primary human tumors propagated in mice; assay: Clonogenic two-layer soft agar assay of primary patient tumor explants; type: cell-based; conditions: IC50 of clonogenic assay against TSPYL5 expression, FIG. 4
Procedure: Primary human tumors were propagated in mice. Tumors were dissociated and their sensitivity to romidepsin was tested using a clonogenic assay.
The clonogenic assay was performed in a 24-well format according to a modified two-layer soft agar assay introduced by Hamburger & Salmon (Hamburger A W, Salmon S E. Primary bioassay of human tumor stem cells. Science 197:461 (1977)). Briefly, cells were seeded on a bottom layer of growth medium supplemented with 0.4% (w/v) agar. Cells were added in 0.2 ml of the same medium supplemented with 0.4% (w/v) agar. Test compounds were applied diluted in culture medium. Cultures were incubated at 37° C. and 7.5% CO2 in a humidified atmosphere for up to 21 days. After 4-21 days, colonies were counted and drug effect was expressed as percent colony formations compared to untreated controls.

HDF TSPYL5 KD cells = assay: Cell growth assay in human dermal fibroblasts with TSPYL5 knockdown; type: cell-based; conditions: HDF TSPYL5 KD versus HDF NS, FIG. 8
Excerpt: FIG. 8 depicts the effect of knockdown of TSPYL5 expression on sensitivity of HDF cells to romidepsin using shRNA, as measured by the effect of romidepsin treatment on IC50 (Panel A), growth rate (GR) (Panel B) and S value (Panel C). Sensitivity of TSPYL5 knockdown cells to romidepsin is increased as measured by S value and growth rate. HDF cells expressing either TSPYL5 shRNA (HDF TSPYL5 KD) or non-silencing control shRNA (HDF NS) were created using lentiviral infection. Knockdown of TSPYL5 in HDF TSPYL5 KD cells was verified using western blot and quantitative PCR. Expression of TSPYL5 in these cells was reduced by >70%. After selection of stable pools with puromycen, cells were treated with varying concentrations of romidepsin for determination of IC50, GR and S value. The data shown are means and standard deviations from 8 independent experiments. Panel A: Romidepsin IC50s for HDF TSPYL5 KD cells and HDF NS cells. Panel B: Romidepsin GR for HDF TSPYL5 KD cells and HDF NS cells. […]
as §2, with “Cells were plated in 96-well plates and allowed to attach and grow overnight. The following day, the cells were treated with serial dilutions of test compound.” left out

class 2 HDAC 6 = molecular target: T1, class 2 HDAC 6 (Homo sapiens, UniProt Q9UBN7); conditions: data from Bradner et al., FIG. 6; cited from earlier work
T1 sequence (Q9UBN7 1-1215): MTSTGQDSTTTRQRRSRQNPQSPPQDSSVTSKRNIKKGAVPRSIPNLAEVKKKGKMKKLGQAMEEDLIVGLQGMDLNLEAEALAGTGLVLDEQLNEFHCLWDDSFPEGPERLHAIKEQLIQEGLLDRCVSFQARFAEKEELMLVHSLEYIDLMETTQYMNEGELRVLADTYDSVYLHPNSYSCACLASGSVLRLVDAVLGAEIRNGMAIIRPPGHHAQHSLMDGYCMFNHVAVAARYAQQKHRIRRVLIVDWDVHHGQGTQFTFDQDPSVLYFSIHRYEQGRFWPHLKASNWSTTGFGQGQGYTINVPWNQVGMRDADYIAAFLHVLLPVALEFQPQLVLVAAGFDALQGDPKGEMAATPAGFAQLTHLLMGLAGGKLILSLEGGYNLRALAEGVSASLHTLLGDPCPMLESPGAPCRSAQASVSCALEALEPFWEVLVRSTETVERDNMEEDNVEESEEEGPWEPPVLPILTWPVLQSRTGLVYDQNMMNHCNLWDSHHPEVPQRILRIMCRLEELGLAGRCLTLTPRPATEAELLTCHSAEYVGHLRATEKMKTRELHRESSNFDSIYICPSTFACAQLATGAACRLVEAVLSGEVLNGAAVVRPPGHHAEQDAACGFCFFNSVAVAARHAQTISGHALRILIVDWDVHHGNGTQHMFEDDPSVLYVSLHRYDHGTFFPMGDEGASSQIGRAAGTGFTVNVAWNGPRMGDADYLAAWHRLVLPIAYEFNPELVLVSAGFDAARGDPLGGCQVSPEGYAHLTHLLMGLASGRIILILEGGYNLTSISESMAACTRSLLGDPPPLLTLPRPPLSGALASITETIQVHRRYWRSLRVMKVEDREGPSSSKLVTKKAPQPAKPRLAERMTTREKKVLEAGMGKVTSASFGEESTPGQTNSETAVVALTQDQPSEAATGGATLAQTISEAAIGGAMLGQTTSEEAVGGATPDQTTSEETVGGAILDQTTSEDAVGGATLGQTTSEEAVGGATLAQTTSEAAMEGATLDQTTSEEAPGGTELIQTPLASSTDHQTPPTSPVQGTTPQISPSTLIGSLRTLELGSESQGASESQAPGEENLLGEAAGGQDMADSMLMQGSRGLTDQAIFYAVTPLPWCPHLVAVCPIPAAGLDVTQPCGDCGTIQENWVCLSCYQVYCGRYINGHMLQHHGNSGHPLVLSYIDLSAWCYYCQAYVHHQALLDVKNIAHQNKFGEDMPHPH

Row | SMILES | Inhibition of class 1 HDACs 1 and 2 (class 1 HDACs 1 and 2) | S value (SKOV3 TSPYL5 KD cells; S=IC50+(GR+100)×(maximum drug concentration/200)) | GR (growth at the highest tested concentration) (SKOV3 TSPYL5 KD cells; highest romidepsin concentration 1000 nM, relative to day 0) | IC50 (SKOV3 NS cells; Homo sapiens, SK-OV-3, SKOV3 NS (non-silencing control shRNA)) | IC50 (SKOV3 NS cells; SKOV3 NS (non-silencing control shRNA)) | S value (SKOV3 NS cells; SKOV3 NS, S=IC50+(GR+100)×(maximum drug concentration/200)) | Sensitivity by tissue of origin (cell line panel; 6 h drug treatment, S value, FIG. 2B) | S-value across cell lines (cell line panel; 6 h drug treatment, most sensitive to most resistant cell lines) | Sensitivity of cell lines (cell line panel; 72 hour treatment) | Sensitivity of cell lines expressing high levels of TSPYL5 (cell line panel; S value against TSPYL5 gene expression, FIG. 3) | IC50 (cell line panel; read-out: IC50 of cell growth) | Sensitivity of primary tumors with high TSPYL5 expression [1] | Effect of TSPYL5 knockdown on sensitivity of HDF cells (HDF TSPYL5 KD cells) | Inhibition of class 2 HDAC 6 (class 2 HDAC 6)
1 | Nc1ccccc1NC(=O)c1ccc(CNC(=O)OCc2cccnc2)cc1 [entinostat] | inhibit | – | – | – | – | – | – | – | – | – | – | – | – | –
2 | C/C=C1\NC(=O)[C@H]2CSSCC/C=C/[C@H](CC(=O)N[C@H](C(C)C)C(=O)N2)OC(=O)[C@H](C(C)C)NC1=O [romidepsin] | inhibit | 156 and 115 and 105 and 112 and 135 | −92.5% and −88.6% and −93.2% and −86.1% and −84.3% | 141 nM | 136 nM and 139 nM and 98 nM and 162 nM | 291 and 253 and 256 and 230 and 243 | blood cell lines show the greatest sensitivity | 4-2000 | majority of the tested cell lines showed sensitivity | no cell line expressing high levels of TSPYL5 was sensitive | 97.3 nM | resistant | increases sensitivity | –
3 | O=C(CCCCCCC(=O)Nc1ccccc1)NO [vorinostat] | – | – | – | – | – | – | – | – | – | – | – | – | – | inhibit

From patent US9134325B2, “Resistance biomarkers for HDAC inhibitors” (Celgene Corporation, priority 2012, dated 2015)
